Measurements: patent US12617777B2, “GPR84 antagonists and uses thereof” (Liminal BioSciences Limited, priority 2021, dated 2026)

Target: T1, human GPR84 receptor (Homo sapiens, UniProt Q9NQS5)
T1 construct: host or cells: HEK293, transient transfection
Test: Gαi biosensor BRET assay in HEK293 cells (antagonism of ZQ-16)
Assay type: cell-based
Details: for inhibition at 10 µM: HEK293, single concentration 10 μM (designated F); for IC50: HEK293 cells, antagonism of 200 nmol/L ZQ-16; for inhibition at 25 µM: HEK293, single concentration 25 μM (designated I); for inhibition at 12.5 µM: HEK293, single concentration 12.5 μM (designated G)
Excerpt: Background—The following assays can be used for determination of GPR84 activation in living HEK293 cells. The Gai BRET biosensor (Gagnon et al., 2018; Gales et al., 2006. Nat StructMol Biol. 13, 778-86; Saulieres et al., 2012. Nat Chem Biol. 8, 622-30) allows to directly monitor GPR84-mediated activation of Gai. The Gai biosensor consists of a Rluc8-tagged Gαi2 subunit, a GFP10-tagged Gγ2 subunit, and an untagged Gβ1. Agonist stimulation and GPR84 activation triggers a physical separation between the RLuc8-Gαi donor and the GFP10-Gγ2 acceptor, resulting in a decrease in BRET signal whose amplitude is correlated to ligand efficacy (Gales et al., 2006). Moreover, signaling functions of GPCRs are tightly regulated by endocytosis, the targeting of receptors to endosomes and their sorting to lysosomes or recycling to the plasma membrane. The early endosomes (EEs) trafficking assay (Namkung et al., 2016. Nat Commun. 7, 12178) uses Rluc8-tagged GPR84 and Renilla GFP (rGFP) attached to the FYVE domain from human endofin/zinc finger FYVE domain-containing protein 16, which binds phosphatidylinositol 3-phosphate in EEs. Agonist stimulation of GPR84-Rluc8 leads to trafficking of the receptor to EEs, and ensuing increase of the donor concentration relative to the rGFP-FYVE acceptor anchored in the same cellular compartment, and thus results in an increase in BRET signal.
Plasmids—The cDNA clones for human GPR84 receptor, human Gai2, Gp1, and Gy2 were obtained from the cDNA Resource Center (www.cdna.org). GFP10 (F64L, S147P, S202F and H231L variant of Aequorea victoria Green Fluorescent Protein) gBlocks gene fragments (Integrated DNA Technologies, IA) and linker were inserted in frame at the N-terminus of human Gγ2. Rluc8 (A55T, C124A, S130A, K136R, A143M, M185V, M253L, and S287L variant of the Renilla renformis luciferase) gBlocks gene fragment was inserted with linkers in frame in between residues 91 and 92 of Gai2 or at the C-terminus of GPR84. The FYVE domain from human endofin (residues Q739 to K806) attached in frame at the C terminus of a humanized Renilla GFP (rGFP), were synthesized as gBlocks gene fragments.
Bioluminescence Resonance Energy Transfer (BRET) Measurement—HEK293 cells were transfected with GPR84-Rluc8 and rGFP-FYVE for the EEs trafficking biosensor or with GPR84, Gαi2-Rluc8, GFP10-Gγ2, and Gβ1 for the Gαi biosensor. The following day, transiently transfected cells were seeded in 96-well white clear bottom microplates coated with poly-D-lysine and left in culture for 24 hours. Cells were washed once with Tyrode's buffer (140 mmol/L NaCl, 1 mmol/L CaCl2, 2.7 mmol/L KCl, 0.49 mmol/L MgCl2, 0.37 mmol/L NaH2PO4, 5.6 mmol/L glucose, 12 mmol/L NaHCO3, and 25 mmol/L HEPES, pH 7.5) before performing assays in Tyrode's buffer. Test compounds were incubated with cells for 5 (Gαi) or 15 (EEs) minutes at 37° C. before addition of 200 nmol/L of the GPR84 agonist ZQ-16 (2-(Hexylthio)-6-hydroxy-4(3H)-pyrimidinone) for 5 minutes at room temperature (Gαi) or 30 minutes at 37° C. (EEs). The Rluc8 substrate coelenterazine 400A (Prolume, Lakeside, AZ) was added at a final concentration of 5 μmol/L and BRET readings were collected using an Infinite M1000 microplate reader (Tecan, Morrisville, NC). BRET^2 readings between Rluc8 and GFP10 or rGFP were collected by sequential integration of the signals detected in the 370 to 450 nm (Rluc8) and 510 to 540 nm (GFP10, rGFP) windows. The BRET signal was calculated as the ratio of light emitted by acceptor (GFP10, rGFP) over the light emitted by donor (Rluc8). The values were corrected to net BRET by subtracting the background BRET signal obtained in cells transfected with Rluc8 constructs alone. Ligand-promoted net BRET values were calculated by subtracting vehicle-induced net BRET from ligand-induced net BRET.

T1 sequence (Q9NQS5 whole entry): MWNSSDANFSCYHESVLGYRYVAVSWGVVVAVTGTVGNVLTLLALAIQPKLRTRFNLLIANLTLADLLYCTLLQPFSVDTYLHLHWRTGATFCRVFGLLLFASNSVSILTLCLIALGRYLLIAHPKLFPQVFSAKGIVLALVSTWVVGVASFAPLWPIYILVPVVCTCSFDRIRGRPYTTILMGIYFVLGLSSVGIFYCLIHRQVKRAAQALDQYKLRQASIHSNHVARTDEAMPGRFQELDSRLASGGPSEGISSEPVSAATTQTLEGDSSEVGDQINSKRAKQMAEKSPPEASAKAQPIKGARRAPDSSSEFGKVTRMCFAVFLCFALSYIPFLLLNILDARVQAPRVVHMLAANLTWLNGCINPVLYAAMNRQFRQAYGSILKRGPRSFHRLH

Row | inhibition at 25 µM [%] | SMILES | also measured
1 | – | Cc1ccc(C#CC2CC2)cc1[S+]([O-])c1cn(CC2OCC(C)(C)CO2)nn1 (racemic) [Compound I-782, (RS)-4-((5-(cyclopropylethynyl)-2-methylphenyl)sulfinyl)-1-((5,5-dimethyl-1,3-dioxan-2-yl)methyl)-1H-1,2,3-triazole] | inhibition at 10 µM: > 75%
2 | – | Cc1cc(N2CCC[C@@H](N(C)Cc3ccccc3)C2)ccc1-c1cn(C[C@H]2CCCCO2)nn1 (relative stereo) [Compound I-238] | inhibition at 10 µM: 50 to 75%; IC50: 1000 to 3000 nM
3 | – | c1ccc(COc2ccc3c(c2)CCc2cn(CC4CCCCO4)nc2-3)cc1 (single isomer, unassigned) [Compound I-330] | inhibition at 10 µM: ≤ 25%; IC50: 300 to 1000 nM
4 | – | Cc1cc(N2CCC[C@H](N(C)Cc3ccccc3)C2)ccc1-c1cn(C[C@H]2CCCCO2)nn1 (stereo in doubt) [Compound I-240] | inhibition at 10 µM: > 75%
5 | – | C(#CC1CC1)c1ccc2c(c1)CCn1nc(OC[C@H]3COCCO3)cc1-2 (stereo in doubt) [Compound I-332, 2-((1,4-dioxan-2-yl)methoxy)-8-(cyclopropylethynyl)-5,6-dihydropyrazolo[5,1-a]isoquinoline] | inhibition at 10 µM: ≤ 25%
6 | ≤ 25 | C(#CC1CC1)c1ccc(-c2nnn(CC3CCCCO3)n2)cc1 (stereo not drawn) [Compound I-1] | –
7 | ≤ 25 | Cc1ccc(-c2ccc(-c3nnn(CC4CCCCO4)n3)cc2)cn1 (stereo not drawn) [Compound I-2] | –
8 | ≤ 25 | C(#CC1CC1)c1ccc(-c2nnn(CC3COCCO3)n2)cc1 (stereo not drawn) [Compound I-3] | –
9 | 25 to 50 | C(#CC1CC1)c1cccc(-c2nnn(CC3CCCCO3)n2)c1 (stereo not drawn) [Compound I-4] | IC50: ≤ 300 nM
10 | 25 to 50 | Cc1ccc(-c2cccc(-c3nnn(C[C@H]4CCCCO4)n3)c2)cn1 [Compound I-5] | –
11 | ≤ 25 | C(#CC1CC1)c1cccc(-c2nnn(CC3COCCO3)n2)c1 (stereo not drawn) [Compound I-6] | –
12 | ≤ 25 | Cc1c(C#CC2CC2)cccc1-c1nnn(CC2CCCCO2)n1 (stereo not drawn) [Compound I-8] | –
13 | – | Cc1cc(C#CC2CC2)ccc1-c1nnn(CC2CCCCO2)n1 (stereo not drawn) [Compound I-9] | inhibition at 10 µM: ≤ 25%
14 | ≤ 25 | O=c1oc(CC2COCCO2)nn1-c1ccc(C#CC2CC2)cc1 (stereo not drawn) [Compound I-10, 5-((1,4-dioxan-2-yl)methyl)-3-(4-(cyclopropylethynyl)phenyl)-1,3,4-oxadiazol-2(3H)-one] | –
15 | 25 to 50 | O=c1oc(CC2CCCCO2)nn1-c1ccc(C#CC2CC2)cc1 (stereo not drawn) [Compound I-11] | –
16 | – | Cc1cc(C#CC2CC2)ccc1-n1nc(CC2CCCCO2)oc1=O (stereo not drawn) [Compound I-12] | inhibition at 10 µM: 25 to 50%
17 | – | Cc1cc(C#CC2CC2)ccc1-n1nc(OC[C@H]2COCCO2)oc1=O [Compound I-13] | inhibition at 10 µM: 25 to 50%
18 | – | Cc1cc(C#CC2CC2)ccc1-c1nn(CC2CCCCO2)c(=O)o1 (stereo not drawn) [Compound I-15] | inhibition at 10 µM: ≤ 25%
19 | – | O=c1oc(CC2CCCCO2)nn1Cc1cccc(C#CC2CC2)c1 (stereo not drawn) [Compound I-18, 3-(3-(cyclopropylethynyl)benzyl)-5-((tetrahydro-2H-pyran-2-yl)methyl)-1,3,4-oxadiazol-2(3H)-one] | inhibition at 10 µM: 50 to 75%
20 | – | O=c1oc(CC2CCCCO2)nn1Cc1ccc(C#CC2CC2)cc1 (stereo not drawn) [Compound I-19] | inhibition at 10 µM: > 75%
21 | – | CCc1ccc(C#CC2CC2)cc1-n1nc(CC2CCCCO2)oc1=O (stereo not drawn) [Compound I-20] | inhibition at 10 µM: > 75%
22 | ≤ 25 | C(#CC1CC1)c1ccc(-c2cn(C[C@H]3COCCO3)nn2)cc1 [Compound I-22] | –
23 | ≤ 25 | C(#CC1CC1)c1ccc(-c2cn(C[C@H]3COc4ccccc4O3)nn2)cc1 [Compound I-23] | –
24 | > 75 | C(#CC1CC1)c1ccc(-c2cn(C[C@H]3CCCCO3)nn2)cc1 [Compound I-24] | IC50: > 3000 nM
25 | – | Cc1ccc(-c2ccc(-c3cn(C[C@H]4COCCO4)nn3)cc2)cn1 [Compound I-25] | inhibition at 12.5 µM: ≤ 25%
26 | ≤ 25 | Cc1ccc(-c2ccc(-c3cn(C[C@H]4COc5ccccc5O4)nn3)cc2)cn1 [Compound I-26] | –

Row | inhibition at 25 µM [%] | SMILES | also measured
27 | 25 to 50 | C(#CC1CC1)c1ccc(-c2cn(C[C@H]3CCCO3)nn2)cc1 [Compound I-27] | IC50: > 3000 nM
28 | 25 to 50 | C(#CC1CC1)c1ccc(-c2cn(C[C@H]3CCCCO3)nn2)nc1 [Compound I-28] | –
29 | 50 to 75 | Cc1c(-c2ccc(C#CC3CC3)cc2)nnn1C[C@H]1CCCCO1 [Compound I-29] | –
30 | ≤ 25 | Cc1ccc(-c2ccc(-c3cn(C[C@H]4CCCO4)nn3)cc2)cn1 [Compound I-31] | –
31 | – | Cc1ccc(-c2ccc(-c3cn(C[C@H]4CCCCO4)nn3)nc2)cn1 [Compound I-32] | inhibition at 10 µM: ≤ 25%
32 | 25 to 50 | Cc1ccc(-c2cccc(-c3cn(C[C@H]4CCCCO4)nn3)c2)cn1 [Compound I-33] | –
33 | ≤ 25 | C(#CC1CC1)c1ccc(-c2cn(CC3CCCCO3)nn2)cn1 (stereo not drawn) [Compound I-35] | –
34 | 25 to 50 | Cc1ccc(-c2ccc(-c3cn(CC4CCCCO4)nn3)c(C)c2)cn1 (stereo not drawn) [Compound I-36] | IC50: > 3000 nM
35 | 50 to 75 | C(#CC1CC1)c1ccc(-c2cn(CC3CCCCO3)nn2)s1 (stereo not drawn) [Compound I-38] | –
36 | > 75 | Cc1ccc(-c2ccc(-c3cn(CC4CCCCO4)nn3)cc2)cn1 (stereo not drawn) [Compound I-39] | IC50: > 3000 nM
37 | 25 to 50 | C(#CC1CC1)c1ccc(-c2cn(CC3CCOCC3)nn2)cc1 [Compound I-40] | –
38 | ≤ 25 | C(#CC1CC1)c1ccc(-c2cn(CC3CCc4ccccc4O3)nn2)cc1 (stereo not drawn) [Compound I-41] | –
39 | – | C(#Cc1ccc(-c2cn(CC3CCCCO3)nn2)cc1)CC1CC1 (stereo not drawn) [Compound I-44] | inhibition at 10 µM: ≤ 25%
40 | – | Cc1cc(C#CC2CC2)ccc1-c1nnn(C[C@H]2CCCCO2)c1C [Compound I-45] | inhibition at 12.5 µM: 25 to 50%
41 | – | Cc1c(-c2ccc(OCc3ccccc3)cc2)nnn1CC1CCCCO1 (stereo not drawn) [Compound I-46] | inhibition at 5 µM (HEK293, single concentration 5 μM (designated D)): ≤ 25%
42 | ≤ 25 | CN(C)CC#Cc1ccc(-c2cn(CC3CCCCO3)nn2)cc1 (stereo not drawn) [Compound I-47] | –
43 | – | C(#Cc1ccc(-c2cn(CC3CCCCO3)nn2)cc1)CN1CCCCC1 (stereo not drawn) [Compound I-48] | inhibition at 15 µM (HEK293, single concentration 15 μM (designated H)): ≤ 25%
44 | 25 to 50 | Cc1c(-c2ccc(OCc3ccccn3)cc2)nnn1CC1CCCCO1 (stereo not drawn) [Compound I-50] | –
45 | ≤ 25 | FC(F)(F)COc1ccc(-c2cn(CC3CCCCO3)nn2)cc1 (stereo not drawn) [Compound I-51] | –
46 | ≤ 25 | Cc1cc(OCc2ccccc2)ccc1-c1cn(CC2CCCCO2)nn1 (stereo not drawn) [Compound I-52] | –
47 | ≤ 25 | c1ccc(COc2ccc(-c3cn(CC4CCCCO4)nn3)cc2)cc1 (stereo not drawn) [Compound I-53] | –
48 | 50 to 75 | Cc1cc(OCc2ccccn2)ccc1-c1cn(CC2CCCCO2)nn1 (stereo not drawn) [Compound I-54] | IC50: 300 to 1000 nM
49 | ≤ 25 | O=S1(=O)CCC(Cn2cc(-c3ccc(C#CC4CC4)cc3)nn2)CC1 [Compound I-56] | –
50 | ≤ 25 | CC(C)C#Cc1ccc(-c2cn(CC3CCCCO3)nn2)cc1 (stereo not drawn) [Compound I-57] | –
51 | ≤ 25 | CC(C)(C)C#Cc1ccc(-c2cn(CC3CCCCO3)nn2)cc1 (stereo not drawn) [Compound I-58] | –
52 | – | Cc1cc(C#CC2CC2)ccc1-c1cn(CC2CCCO2)nn1 (stereo not drawn) [Compound I-60] | IC50: > 3000 nM
